Tests used:
[1] = test system: DMPG lipid bilayer on MS-PPE; experiment: Disruption of DMPG lipid bilayer on MS-PPE detected by superquenching with AQS, flow cytometry; type: biochemical
Description: Lipid bilayers were disrupted by adding Triton X-100® detergent to the bead suspension to a final concentration of 0.25% (w/v).
(§1) Bead suspensions of 2.5×10^5 PPE-coated microspheres in 200 μL PBS were analyzed using a FACScan flow cytometer (Becton-Dickinson, Sunnyvale, Calif.) with excitation at 488 nm. Fluorescence signals were acquired on the FL-1 channel (525 nm) using log amplification and analyzed with the CellQuest software.
Bead suspensions of 2.5×10^5 DMPG-coated MS-PPE in 200 μL of PBS were analyzed using a FACScan flow cytometer (Becton-Dickinson, Sunnyvale, Calif.) with excitation at 488 nm. Fluorescence signals were acquired on FL-1 channel (525 nm) using log amplification and analyzed with the CellQuest software. Kinetic analysis of disruption of supported lipid bilayer by melittin was performed by acquiring real-time data with continuous mixing of samples (10^6 MS-PPE in 800 μl of PBS) using a magnetic stirrer. The raw data were analyzed using IDL Query software developed by Bruce Edwards (Cancer Center, University of New Mexico, Albuquerque, N. Mex.).
Because an anionic lipid was used to form a lipid bilayer around MS-PPE, it was expected that MLT will disrupt the DMPG lipid bilayer by such a detergent-like action. This was tested by adding 10 μM AQS to DMPG-coated MS-PPE followed by treatment with one of the following: Triton X-100® detergent, synthetic MLT (sMLT), or natural MLT (nMLT) and immediately reading the fluorescence by flow cytometry. […] These histograms resemble the ones reported previously for MS-PPE, without a lipid coating, in absence and in presence of AQS.
The kinetics of disruption of supported lipid bilayer by MLT were monitored by measuring real-time changes in fluorescence intensity by flow cytometry (FIG. 19). Suspensions of 10^6 DMPG-coated MS-PPE in 800 μL of PBS were treated with AQS at a final concentration of 10 μM, then with either sMLT, Triton X-100® detergent, or no treatment. […] Treatment with sMLT in the absence of AQS led to an increase in normalized fluorescence (FIG. 19, trace A). This can be attributed to disruption of the lipid bilayer by sMLT, and is consistent with a reversal of the slight quenching of fluorescence caused by the formation of a DMPG lipid bilayer over MS-PPE. Addition of AQS alone to DMPG-coated MS-PPE (FIG. 19, trace C) led to a 20% reduction in fluorescence as reported earlier. Addition of Triton X-100® detergent to DMPG-coated MS-PPE after the addition of AQS (first dip in trace E, FIG. 19) caused immediate decrease in fluorescence to ˜10% of its original value (second dip in trace E, FIG. 19). In contrast, addition of sMLT, after the addition of AQS, (FIG. 19, trace D) led to a gradual reduction of fluorescence intensity to ˜20% of the original value. Although MLT forms dimers at high concentrations (Dempsey, C. E. Biochim. Biophys. Acta 1990, 1031, 143-161), it is monomeric at the concentrations used in this study. On the other hand, Triton X-100® detergent forms micelles at the concentration used in this study.

[2] = test system: lipid membranes on porous silica beads (containing fluorescein dye); experiment: Microfluidic study: detection of membrane interaction by release of dye from bead packed microcolumn; type: biochemical
Description: To create a packed microcolumn of lipid coated beads containing fluorescein, 2 μL of silica bead (diameter=20 μm) containing suspension (0.05 mg/μL) was injected into a microfluidic channel by applying vacuum at the outlet port of the microchannel, followed by the injection of 10 μL of fluorescein-entrapped bead (diameter=10 μm) containing suspension (0.05 mg/μL). The bead packed microchannel was mounted onto a vertical translational stage located in the sample holder space of the fluorimeter. Just below the bead segment, the microchannel was irradiated with an Argon ion laser (λ=488 nm, 8-10 mW) excitation. The inlet of the column was connected to a buffer reservoir while the outlet was connected to a vacuum source. As the fluorescence intensity at 520 nm was monitored, several microliters of Tris buffer was passed through the microchannel before the injection of Triton X-100® detergent. […]
The packed segment was about 2 mm long. The disruption of the membranes on porous silica beads (containing fluorescein dye) by Triton X-100® detergent was detected by monitoring the release of the dye from the beads, at a point just below the bead segment as indicated in FIG. 7B. […] The microcolumn was irradiated at 488 nm and fluorescence intensity was monitored at 520 nm. […]

[3] = test system: EPC bilayer on porous silica beads; experiment: Suspension study: release of fluorescein dye from lipid bilayer coated porous silica beads; type: biochemical
Description: Lipid coatings on beads were disrupted using 10% Triton X-100. Each sample in micro-centrifuge tubes contained 5 mg of lipid bilayer coated, fluorescein entrapped beads in 200 μL of Tris buffer. Samples were centrifuged and 100 μL aliquots of supernatant were mixed with either 100 μL of Tris buffer or 100 μL of 10% Triton X-100® detergent in separate centrifuge tubes. The fluorescence intensity of each mixture was immediately (time=0) recorded. Each mixture was mixed with its respective bead sample in centrifuge tube and incubated at 25° C. in the dark. After 30 min, samples were centrifuged and fluorescent intensity of the supernatants was measured. Beads were resuspended in their respective supernatants. Fluorescence intensity was again measured at 90 and 150 min.
Experimental procedures were similar to the Triton X-100® detergent based analysis. For experiments with α-toxin, three different toxin concentrations: 15, 45 and 250 μg/mL were used at 37° C. and 25° C. Beads coated with EPC were used. In the experiments with melittin, 220 μM melittin was used with beads coated with either 100% EPC, 10:90 (molar ratio) mixture of DMPG and EPC or an 80:20 mixture of DMPG and DMPC. All melittin experiments were conducted at 25° C.
Previous suspension studies on disruption of lipid bilayers have been performed with small unilamellar vesicles where disruption of the lipid bilayer membranes was detected by monitoring the unquenching of a highly concentrated, encapsulated dye. In the present work disruption was monitored via release of fluorescein dye from porous beads, by measuring the increase in fluorescence intensity of the supernatant at 520 nm. Beads were first suspended in Tris buffer containing the disruptor. After selected time periods, beads were sedimented by centrifuging and a portion of the supernatant was taken for the measurement. The measured portion was added back to the bead sample to permit continuous monitoring. The scattering effect that was present in vesicle based studies was minimized by measuring only the supernatant after centrifugation of the beads.

[4] = Lipid bilayers on MS-PPE as barriers to superquenching by AQS, flow cytometry; type: physicochemical; conditions: 10 μM AQS
Description: Small unilamellar vesicles (SUVs) were prepared using a 2 mM solution of DPPC, 1 mM egg-PC, or 2 mM DMPG in chloroform. The lipid was dried by nitrogen gas followed by vacuum. The dried lipid was resuspended in phosphate buffer saline (PBS), pH 7.4, and incubated at 37° C. for 10 min, then sonicated to optical clarity in a sonication bath (Branson Cleaning Equipment Co., Shelton, Conn.).
Lipid bilayers were assembled on microspheres as previously described (Buranda et al. Langmuir 19:1654-1663 (2003); Bayerl & Bloom, Biophys J 58:357-362 (1990)). Briefly, the small unilamellar vesicles were incubated at 37° C. for 5 min, and PPE-coated microspheres were added to them, and mixed at room temperature using a vortex mixer for 30 min, followed by incubation at 37° C. for 5 min without mixing. The lipid-coated PPE-coated microspheres were washed by suspension in PBS followed by centrifugation, where the clear supernatant was decanted and discarded. The cycle of resuspension, centrifugation, and decanting, was repeated four additional times. Finally, the lipid-coated PPE-coated microspheres were resuspended in PBS.
as §1
The feasibility of using the zwitterionic lipids DPPC and egg-PC to form supported lipid bilayers on MS-PPE was assessed (FIG. 15). […] Addition of AQS produced an almost 40% reduction of the polymer fluorescence, yet the fluorescence of the DPPC bilayer coated MS-PPE in the presence of the AQS quencher was still almost 10-fold higher than that of MS-PPE and quencher without the lipid.
The PPE polymer is positively charged. […] However when using 2 mM DMPG, the modulation of polymer fluorescence was relatively small (FIG. 15). […] Thus, upon addition of quencher to MS-PPE after treatment with DMPG ˜70% of fluorescence of the PPE was retained (FIGS. 16A and 16B).

[5] = 0.25% (w/v) Triton X-100, 10 μM AQS

## Triton X-100
[1]; [5]
  fluorescence after bilayer disruption, of the fluorescence of DMPG-coated MS-PPE in the absence of quencher: ~18%
  fluorescence after bilayer disruption, of the original fluorescence value: ~10%
[1]; real-time kinetics, added after 10 μM AQS (traces D, E)
  fluorescence intensity, of the original value: ~10%
[2]; 10% Triton X-100, microcolumn versus suspension
  initial signal (1st peak) less than that observed in suspension studies: ~80%
[2]; 10 μL of 10% Triton X-100, about 5 min no flow incubation
  increase in fluorescence intensity at detection point: 25 fold
[3]; 10% Triton X-100, first 30 min, 25° C.
  increase in fluorescence intensity of the supernatant: more than 70 fold
[3]; Triton X-100 added after 150 min of α-toxin exposure
  increase in fluorescence intensity (total disruption of bilayers): 50 fold

## CCCCCCCCCCCCCCCC(=O)OC[C@H](COP(=O)([O-])OCC[N+](C)(C)C)OC(=O)CCCCCCCCCCCCCCC [DPPC, 1,2-dipalmitoyl-sn-glycero-3-phosphatidylcholine]
[4]
  fluorescence with AQS relative to MS-PPE and quencher without the lipid: ~10 fold
[4]; lipid coated MS-PPE
  reduction (quenching) of polymer fluorescence on addition of AQS: ~40%

## CCCCCCCCCCCCCC(=O)OC[C@H](COP(=O)([O-])OCC(O)CO)OC(=O)CCCCCCCCCCCCC.[Na+] (mixture of isomers) [DMPG, 1,2-dimyristoyl-sn-glycero-3-[phosphor-rac-(1-glycerol)] sodium salt]
[4]; 2 mM DMPG
  fluorescence of the PPE retained upon addition of quencher: ~70%
